Laboratory results: patent publication US11192889B2, “Tetrahydronaphthyridinepentanamide integrin antagonists” (The Rockefeller University, priority 2016, dated 2021)
Where “and” joins values, the source holds several entries; their conditions need not be identical. Identical values can stand only once.

What was measured:
Assay type in all cases: cell-based
[1] = tested on: HEK-293-αVβ3 cells; test: AP5 Binding Assay; details: 10 mM EDTA; average±SD of 17 experiments
Text: (§1) HEK-293 Cells Expressing αVβ3. HEK-293 cells were transfected using lipofectamine 2000 (Invitrogen #11668030) with the cDNA for αV using the pEF1/V5-His A vector and the cDNA for β3 using the vector pcDNA3.1. Cells expressing αVβ3 were identified by their reaction with murine monoclonal antibodies (mAbs) LM609 and 7E3, and stable cell lines were established by repetitive sorting using LM609. […] HEK-293-αVβ3 cells for assays are counted in an automated cell counter (ADVIA 120) and adjusted to values appropriate for each assay.
(§2) AP5 Binding Assay. HEK-293-αVβ3 cells are harvested using 0.05% trypsin 0.5 mM EDTA, washed with HBMT once, and resuspended in HBMT containing 1 mM Mg2+ and 2 mM Ca2+. The cells are counted and adjusted to 0.5×10^6 cells per sample. The compound to be tested and fluorescently labeled mAb AP5 (either Alexa 488 or Alexa 674; 10 μg/mL) are added and incubated for 30 minutes at 37° C. The cells are then washed and analyzed by flow cytometry (BD FACSCalibur) at the appropriate wavelength for detecting the AP5 fluorophore. In each assay, cilengitide (1 μM) and 10 mM EDTA are included as positive controls and untreated cells are used as the negative control. The concentration of the test compound required to induce the expression of 50% of the AP5 expression induced by cilengitide is calculated and defined as the EC50. The EC50 for cilengitide was determined based on the expression induced by EDTA.

[2] = target: T1, HEK-293-αVβ3 cells (Homo sapiens, UniProt P05106+P06756); test: AP5 Binding Assay; details: for activation at 10 µM: relative to AP5 expression induced by cilengitide, read-out: AP5 expression induced at the highest concentration; for EC50: concentration inducing 50% of the AP5 expression induced by 1 μM cilengitide
T1 sequence (P05106 whole entry): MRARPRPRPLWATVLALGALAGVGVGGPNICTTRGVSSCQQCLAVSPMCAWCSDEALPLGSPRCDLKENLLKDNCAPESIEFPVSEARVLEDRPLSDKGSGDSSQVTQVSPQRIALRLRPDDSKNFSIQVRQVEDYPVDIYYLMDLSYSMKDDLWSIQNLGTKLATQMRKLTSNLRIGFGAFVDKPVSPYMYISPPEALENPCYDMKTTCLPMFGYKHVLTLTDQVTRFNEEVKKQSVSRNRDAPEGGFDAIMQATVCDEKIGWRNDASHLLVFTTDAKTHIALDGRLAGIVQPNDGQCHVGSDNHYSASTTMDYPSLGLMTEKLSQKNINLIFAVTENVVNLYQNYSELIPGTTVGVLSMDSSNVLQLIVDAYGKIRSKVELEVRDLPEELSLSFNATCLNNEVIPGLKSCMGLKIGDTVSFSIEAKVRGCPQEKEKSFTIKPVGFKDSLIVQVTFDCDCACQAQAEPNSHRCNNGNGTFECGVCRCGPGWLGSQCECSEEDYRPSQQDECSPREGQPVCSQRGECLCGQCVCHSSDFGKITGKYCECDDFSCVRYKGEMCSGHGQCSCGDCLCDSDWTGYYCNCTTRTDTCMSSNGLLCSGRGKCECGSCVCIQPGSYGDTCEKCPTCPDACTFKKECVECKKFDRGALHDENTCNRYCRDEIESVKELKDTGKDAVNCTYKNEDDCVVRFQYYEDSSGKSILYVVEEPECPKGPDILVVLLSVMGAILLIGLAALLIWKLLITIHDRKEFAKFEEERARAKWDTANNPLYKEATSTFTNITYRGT
T1 sequence (P06756 whole entry): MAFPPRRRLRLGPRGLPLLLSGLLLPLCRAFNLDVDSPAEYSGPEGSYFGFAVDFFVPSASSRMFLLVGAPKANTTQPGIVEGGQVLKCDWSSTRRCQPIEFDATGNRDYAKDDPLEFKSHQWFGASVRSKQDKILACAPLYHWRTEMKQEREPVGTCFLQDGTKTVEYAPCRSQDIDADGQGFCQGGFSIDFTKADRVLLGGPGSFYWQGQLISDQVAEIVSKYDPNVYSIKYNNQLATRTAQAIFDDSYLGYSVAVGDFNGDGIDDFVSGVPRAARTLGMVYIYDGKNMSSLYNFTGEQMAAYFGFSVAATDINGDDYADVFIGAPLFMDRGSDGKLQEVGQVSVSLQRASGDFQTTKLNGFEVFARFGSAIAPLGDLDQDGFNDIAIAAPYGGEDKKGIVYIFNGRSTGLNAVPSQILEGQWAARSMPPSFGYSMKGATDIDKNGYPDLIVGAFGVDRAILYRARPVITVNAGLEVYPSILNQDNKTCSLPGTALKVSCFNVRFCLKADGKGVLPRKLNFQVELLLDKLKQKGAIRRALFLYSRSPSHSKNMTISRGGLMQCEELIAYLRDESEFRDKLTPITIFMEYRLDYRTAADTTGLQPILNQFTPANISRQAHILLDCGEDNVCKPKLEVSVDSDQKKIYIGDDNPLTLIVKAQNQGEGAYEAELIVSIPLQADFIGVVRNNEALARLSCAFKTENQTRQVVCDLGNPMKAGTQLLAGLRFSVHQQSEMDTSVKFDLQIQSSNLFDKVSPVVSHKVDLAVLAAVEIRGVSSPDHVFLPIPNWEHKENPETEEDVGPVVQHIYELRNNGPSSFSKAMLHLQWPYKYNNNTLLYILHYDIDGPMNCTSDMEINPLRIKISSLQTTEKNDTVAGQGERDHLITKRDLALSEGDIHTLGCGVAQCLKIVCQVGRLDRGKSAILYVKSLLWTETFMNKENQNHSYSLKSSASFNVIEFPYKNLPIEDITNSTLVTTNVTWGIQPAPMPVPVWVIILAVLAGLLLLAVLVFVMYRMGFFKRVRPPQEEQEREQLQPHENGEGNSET
Text: as §1, §2

[3] = target: T1, HEK-293-αVβ3 cells; test: αVβ3 Cell Adhesion to Fibrinogen Assay; design: IC50; other: dose reducing by 50% the adhesion of HEK-293-αVβ3 cells to fibrinogen; untreated cells 100% adhesion, 10 mM EDTA 0%; details: dose reducing by 50% the adhesion of HEK-293-αVβ3 cells to fibrinogen; separate determinations listed
Text: as §1
αVβ3 Cell Adhesion to Fibrinogen Assay. Polystyrene 96-well microtiter plates (Costar, 3590) are precoated with 3.5 μg/mL of purified fibrinogen (Enzyme Research Laboratories) in 0.15 M NaCl, 0.01 M Tris/HCL, pH 7.4 for 1 hour at 37° C. The wells are then washed and incubated with HEPES-Buffered Modified Tyrode's solution (HBMT; 0.128 M NaCl, 10 mM HEPES, 12 mM NaHCO3, 0.4 mM NaH2PO4, 2.7 mM KCl, 0.35% bovine serum albumin (Fisher), 0.1% glucose, pH 7.4) for 1 hour at room temperature or overnight at 4° C. Wells are washed with HBMT containing 1 mM Mg2+ and 2 mM Ca2+ and then 50 μL of HEK-293-αVβ3 cells that have been pretreated with the compound to be tested for 20 minutes at room temperature are added to each well at a concentration of 3,000 cells/μL. After 30-32 minutes the wells are washed with HBMT containing Ca2+ and Mg2+ three times and then the adherent cells are lysed and the acid phosphatase activity that is released is measured by: 1. adding phosphatase substrate (Sigma EC 224-246-5) at 2 mg/mL in 0.1 M Na citrate, pH 5.6, 0.1% triton X-100 for 1 hour at room temperature; 2. stopping the reaction by adding 50 μL of 2 M NaOH; and 3. analyzing the samples in a spectrophotometer at 405 nm. In each assay, 10 mM EDTA is used as a positive control and untreated cells are used as a negative control. The IC50 is the dose of test compound that reduces by 50% the adhesion of the HEK-293-αVβ3 cells, taking the results with untreated cells as 100% and the results in the presence of EDTA as 0%. In some instances more than one IC50 determination was made, in which case, results of separate determinations are reported. IC50's were not determined for all compounds in the table; for some of these test compounds the inhibition at specific doses are reported. In some instances, the test compound produced a greater reduction than 10 mM EDTA, and these are shown as negative numbers.

SMILES	AP5 expression [1]	activation at 10 µM [2]	EC50 [2]	IC50 [3]
O=C(O)CN(CCN(CC(=O)O)CC(=O)O)CC(=O)O [EDTA, reference compound]	21.8±5.9 arbitrary fluorescence units			
O=C(CCCCc1nc2c(cc1C1CC1)CCCN2)NCCC(Nc1nc2ccccc2o1)C(=O)O (centres unmarked) [Example 83, 2-(1,3-benzoxazol-2-ylamino)-4-[5-(3-cyclopropyl-5,6,7,8-tetrahydro-1,8-naphthyridin-2-yl)pentanoylamino]butanoic acid]		5%	> 10000 nM	128 nM
O=C(CCCCc1ccc2c(n1)NCCC2)NCCC(C(=O)O)c1cnc2ccccc2c1 (centres unmarked) [Example 84, 2-(quinolin-3-yl)-4-(5-(5,6,7,8-tetrahydro-1,8-naphthyridin-2-yl)pentanamido)butanoic acid]		31%	> 10000 nM	121 nM
O=C(CCCCc1ccc2c(n1)NCCC2)NCC[C@@H](Nc1nc2ccccc2o1)C(=O)O [Example 85, (R)-2-(benzo[d]oxazol-2-ylamino)-4-(5-(5,6,7,8-tetrahydro-1,8-naphthyridin-2-yl)pentanamido)butanoic acid]		5%	> 10000 nM	151 nM
O=C(CCCCc1ccc2c(n1)NCCC2)NCC[C@@H](NC(=O)c1nc2ccccc2s1)C(=O)O [Example 86, (R)-2-(benzo[d]thiazole-2-carboxamido)-4-(5-(5,6,7,8-tetrahydro-1,8-naphthyridin-2-yl)pentanamido)butanoic acid]		7%	> 10000 nM	129 nM and 169 nM
O=C(CCCCc1ccc2c(n1)NCCC2)NCC[C@H](Nc1nc2ccccc2o1)C(=O)O [Example 87, (2S)-2-(1,3-benzoxazol-2-ylamino)-4-[5-(5,6,7,8-tetrahydro-1,8-naphthyridin-2-yl)pentanoylamino]butanoic acid]		14%	> 10000 nM	187 nM
O=C(CCCCc1ccc2c(n1)NCCC2)NCC[C@@H](Nc1ncc(-c2ccccc2)cn1)C(=O)O [Example 91, (R)-2-((5-phenylpyrimidin-2-yl)amino)-4-(5-(5,6,7,8-tetrahydro-1,8-naphthyridin-2-yl)pentanamido)butanoic acid]			> 10000 nM	534 nM
O=C(CCCCc1ccc2c(n1)NCCC2)NCC[C@H](Nc1ncc(-c2ccccc2)cn1)C(=O)O [Example 92, (2S)-2-[(5-phenylpyrimidin-2-yl)amino]-4-[5-(5,6,7,8-tetrahydro-1,8-naphthyridin-2-yl)pentanoylamino]butanoic acid]			> 10000 nM	201 nM
